Publication PMC12974487, “Inhibition of FicD-mediated AMPylation and deAMPylation by isoprenoid diphosphates” (Proceedings of the National Academy of Sciences of the …, 2026)

Target: T1, FicD^E234G, L258D (Homo sapiens, UniProt Q9BVA6, E234G/L258D)
T1 construct: Wild-type FicD (residues 105-458) and all mutants were expressed as N-terminal 6xHis-Sumo fusions; 6xHis-Sumo (N, cleaved yes); made in house; host or cells: Rosetta(DE3) E. coli
T1 sequence (Q9BVA6 105-458 E234G/L258D): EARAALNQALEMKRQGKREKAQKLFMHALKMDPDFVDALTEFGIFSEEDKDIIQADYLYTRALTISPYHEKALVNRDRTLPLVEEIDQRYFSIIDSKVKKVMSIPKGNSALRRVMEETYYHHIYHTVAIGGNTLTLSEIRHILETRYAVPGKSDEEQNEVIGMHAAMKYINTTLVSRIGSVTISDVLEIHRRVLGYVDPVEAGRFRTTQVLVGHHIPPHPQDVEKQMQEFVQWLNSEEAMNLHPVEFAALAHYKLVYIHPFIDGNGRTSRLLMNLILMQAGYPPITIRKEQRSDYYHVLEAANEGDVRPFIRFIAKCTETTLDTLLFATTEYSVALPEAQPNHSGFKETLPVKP
Assay: DSF thermal shift with FicD^E234G, L258D
Assay type: binding

SMILES: CC(C)=CCC/C(C)=C/CC/C(C)=C/COP(=O)(O)OP(=O)(O)O [FPP, farnesyl-pyrophosphate]
- binding to FicD^E234G, L258D by DSF (absence of MgCl2): bound
- binding to FicD^E234G, L258D by DSF (presence of 5 mM MgCl2): bound
